In patent US20150306232A1, “HYDROGELATORS COMPRISING D-AMINO ACIDS” (BRANDEIS UNIVERSITY, priority 2012, published 2015):
Non-standard residues stand in square brackets, D forms with d. Residues, ends and D or L forms follow the SMILES beside them. *: point of attachment. Paclitaxel(2'-O-succinyl) = CC(=O)O[C@H]1C(=O)[C@@]2(C)[C@H]([C@H](OC(=O)c3ccccc3)[C@]3(O)C[C@H](OC(=O)[C@H](OC(=O)CCC(=O)*)[C@@H](NC(=O)c4ccccc4)c4ccccc4)C(C)=C1C3(C)C)[C@]1(OC(C)=O)CO[C@@H]1C[C@@H]2O; Naproxen = COc1ccc2cc([C@H](C)C(=O)*)ccc2c1; d(pY) = N[C@H](Cc1ccc(OP(=O)(O)O)cc1)C(=O)O; Acetyl(2-naphthyl) = O=C(Cc1ccc2ccccc2c1)*

Columns and labels:
HeLa cells = assay: cells; format: cell-based; settings: 72 hours at 37° C., MTT; read-out: IC50, HeLa cell viability
Experimental: We seeded […] (cells/well) of health HeLa cells into 96-well plate with 100 μL of MEM medium supplemented with 10% fetal bovine serum (FBS), 100 U/mL penicillin and 100 mg mL21 streptomycin. The incubation at 37° C. and 5% CO2 for 12 hours allowed HeLa cells to attach the bottom of 96-well plate. Then we replaced the medium by another 100 μL of growth medium that contained serial diluents of our compounds (0.5% DMSO) and then incubated the cells at 37° C. and 5% CO2 for additional 72 hours. During the measurement of proliferation for HeLa cells, which were assayed into three days, we added 10 μL of (3-(4,5-Dimethylthiazol-2-yl)-2,5-diphenyltetrazolium bromide (MTT, 0.5 mg/mL) into the assigned wells in their corresponding day every 24 hours, which was followed by adding 100 μL of 0.1% sodium dodecyl sulfate (SDS) 4 hours later. Then we collected the assay results after another 24 hours incubation. Since the mitochondrial reductase in living cells reduced MTT to purple fomazan, the absorbance at 595 nm of the whole solution was finally measured by DTX 880 Multimode Detector. With MEM medium as blank and untreated HeLa cells as control, we measure each concentration of these compounds in triplicate. The IC50 values of our hydrogelators were read from their activity curves (with the measurement of 8 different concentrations) in day 3.

[1] = enzymatic hydrogelation with ALP; format: physicochemical; settings: water, pH 7.4
Experimental: To investigate the enzymatic hydrogelation of the D-peptidic precursor 11b, we prepared a series of hydrogels formed by using ALP to treat 11b at different concentrations. After dissolving 1.0, 2.0, 3.0, 4.0, and 5.0 mg of 11b in 0.5 mL of water (pH 7.6), respectively, we obtained clear solutions of 11b with different concentrations. The treatment of the solutions of 11b with ALP (1.0 U/mL) afforded the molecules of hydrogelator 12b, which are less soluble than 11b and thus self-assemble in water to form hydrogels when the concentrations of 12b are sufficient.
All the compounds were dissolved in de-ionized water. We then adjusted pH of the solutions carefully adding 1 M of NaOH and 1 M of HCl and measured the values by pH paper (pH 6.0-8.0). After prepared clear weakly basic solutions (pH 7.6 or 7.4), we then formed the hydrogels by adding enzymes (alkaline phosphatase).

[2] = toxicity and relative weight of treated mice; format: in vivo, Balb/c mice; settings: hydrogel, single intratumoral injection, 14 days
COX-1 = COX-1 (μM)
Excerpt: (§1) Table printed on a drawing sheet, Figure 7
Head of the field: COX-1 (μM)
(§2) First copying reader's note: The head cell at top left is split by a diagonal line (IC50 for the columns, Hydrogel for the rows); the footnote for the mark ^a is not printed on the sheet.
Where the first naming reader finds the target: head: COX-1 (μM)

COX-2 = COX-2 (Homo sapiens, UniProt P35354); assay: COX-2 (μM)
Excerpt: as §1
Head of the field: COX-2 (μM)
as §2
Where the first naming reader finds the target: head: COX-2 (μM)

COX-1 (ovine) enzyme = target: T1, COX-1 (ovine) enzyme (Ovis aries, UniProt P05979); assay: COX Fluorescent Inhibitor Screening Assay, COX-1; format: biochemical; settings: read-out: IC50 for inhibiting COX-1 enzyme
T1 construct: purchased Cayman Chemical 700100
T1 sequence (P05979 25-600): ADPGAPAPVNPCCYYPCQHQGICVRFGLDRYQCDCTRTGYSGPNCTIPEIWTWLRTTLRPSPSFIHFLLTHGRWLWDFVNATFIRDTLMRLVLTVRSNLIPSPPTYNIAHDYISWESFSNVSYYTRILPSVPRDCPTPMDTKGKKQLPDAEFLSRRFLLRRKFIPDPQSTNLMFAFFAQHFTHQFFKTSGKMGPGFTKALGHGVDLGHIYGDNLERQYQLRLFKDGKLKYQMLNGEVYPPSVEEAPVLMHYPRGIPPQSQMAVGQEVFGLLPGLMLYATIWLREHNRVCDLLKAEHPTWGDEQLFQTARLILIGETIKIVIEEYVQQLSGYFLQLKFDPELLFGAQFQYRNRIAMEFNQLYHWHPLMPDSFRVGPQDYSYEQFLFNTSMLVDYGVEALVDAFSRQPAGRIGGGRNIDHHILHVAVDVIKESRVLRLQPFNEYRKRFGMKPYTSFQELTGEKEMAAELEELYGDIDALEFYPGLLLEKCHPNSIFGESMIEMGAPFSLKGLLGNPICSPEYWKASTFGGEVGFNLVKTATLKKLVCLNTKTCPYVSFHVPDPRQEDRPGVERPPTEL
Experimental: To study the drug efficacies of NSAID containing hydrogelators, here we used ‘COX Fluorescent Inhibitor Screening Assay Kit’ (700100; Cayman Chemical) to do in vitro inhibition assays for Npx and Npx containing hydrogelors 1, 2, 3, 4, 5, and 6. Each compound was tested by COX-1 (ovine) enzyme and COX-2 (human recombinant) enzyme separately in 96 well black assay plates. By utilizing the peroxidase component of COXs, we monitored the reaction between PGG2 and ADHP (10-acetyl-3,7-dihydroxyphenoxazine), which produced highly fluorescent compound resorufin. This resorufin can be easily analyzed by multimode detector with an excitation wavelength of 530-540 nm and an emission wavelength of 585-595 nm. All the compounds are assayed in triplicate. After the combination of 10 μl of inhibitors, 10 μl of Heme solution, 10 μL of fluorometric substrate, 10 μl of enzyme (either COX-1 or COX-2), and 150 μl of assay buffer, we quickly add 10 μl of arachidonic acid solution to initiate the reaction. Then we read the plate exactly after two minutes incubation at room temperature. In this experiment, we also measure the blank data without enzyme and inhibitors, and the control data without inhibitors. The IC50 values of these hydrogelators were read from their activity curves (FIG. 18), which were measured with 5 different concentrations of these hydrogelators (dissolved in DMSO).

[3] = in vitro release of hydrogelators from hydrogels; format: physicochemical; settings: 0.8 wt % hydrogel, PBS pH 7.4, 37° C., after 24 hours
Experimental: After studying their drug efficacies, the sustained release of Npx-containing hydrogelators from 0.8 wt % of hydrogels was studied. We incubated 100 μL of hydrogels at 37° C. for 24 hours with 100 μL of PBS buffer solution (pH 7.4), which is refreshed and monitored at 1 h, 2 h, 4 h, 8 h, 12 h, and 24 h. […] After 24 hours, hydrogel 1 slowly and steadily released 6.5% of the hydrogelator. […] Hydrogels 5 and 6 release 35.8% and 31.7% of hydrogelators after 24 h.
To illustrate the in vitro release profile of hydrogelators, we prepared 100 μL of the hydrogels formed by 1 (0.8 wt %, pH 4.0), 2 (0.8 wt %, pH 7.6), 3 (0.8 wt %, pH 7.6), 4 (0.8 wt %, pH 7.6), 5 (0.8 wt %, pH 7.0), and 6 (0.8 wt %, pH 7.0). With the addition of PBS buffer (100 μL, pH 7.4) onto the surface of hydrogels, the gels were incubated at 37° C. for 24 hours. The release solutions (100 μL) were taken and refreshed at […], 2 h, 4 h, 8 h, 12 h, and 24 h, which were detected by analytical HPLC at 276 nm for the quantities of released Npx containing hydrogelators 1, 2, 3, 4, 5, and 6.

[4] = rheological measurement of Npx containing hydrogels; format: physicochemical; settings: hydrogel 0.8 wt %; for storage modulus G′: 6.28 rad/s
Experimental: Rheological tests were conducted on TA ARES G2 rheometer with TA Orchestrator Software. 25 mm cone-plate was used during the experiment. 0.2 mL of hydrogel sample was placed on the cone-plate.
The measurement performs at the frequency of 6.28 rad/s (0.1 to 10% strain, frequency=10 rads^−1, 10 points per decade). Sweep mode is “log” and temperature was carried out at 25° C. The critical strain (γc) value was determined from the storage-strain profiles of the hydrogel sample. The strain applied to the hydrogel sample increased from 0.1 to 100% (10 rad/s and 25° C.). Over a certain strain, a drop in the elastic modulus was observed, and the strain amplitude at which storage moduli just begins to decrease by 5% from its maximum value was determined and taken as a measure of the critical strain of the hydrogels, which correspond to the breakdown of the cross-linked network in the hydrogel sample.
The frequency ranges from 200 rad/s to 0.1 rad/s, depending on the viscoelastic properties of each sample. A suitable strain was used to ensure the linearity of dynamic viscoelasticity.

Chain of COX-2 (P35354 18-604 limits assumed): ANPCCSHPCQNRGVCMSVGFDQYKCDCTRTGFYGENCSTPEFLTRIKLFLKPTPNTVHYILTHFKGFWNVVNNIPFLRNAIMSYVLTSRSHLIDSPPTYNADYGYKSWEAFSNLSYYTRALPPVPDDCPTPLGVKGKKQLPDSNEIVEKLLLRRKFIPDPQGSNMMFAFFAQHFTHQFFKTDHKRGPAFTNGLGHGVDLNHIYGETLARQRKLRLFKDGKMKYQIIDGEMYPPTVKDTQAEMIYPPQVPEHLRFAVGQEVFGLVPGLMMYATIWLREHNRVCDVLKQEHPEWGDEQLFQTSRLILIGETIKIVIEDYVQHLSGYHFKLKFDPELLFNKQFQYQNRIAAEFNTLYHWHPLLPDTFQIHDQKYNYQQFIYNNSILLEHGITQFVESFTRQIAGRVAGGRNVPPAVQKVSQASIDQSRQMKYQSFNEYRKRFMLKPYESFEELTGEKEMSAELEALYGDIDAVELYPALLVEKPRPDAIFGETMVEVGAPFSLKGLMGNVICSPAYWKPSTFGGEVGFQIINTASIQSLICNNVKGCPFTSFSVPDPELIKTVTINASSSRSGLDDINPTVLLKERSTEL

CC(=O)O[C@H]1C(=O)[C@@]2(C)[C@H]([C@H](OC(=O)c3ccccc3)[C@]3(O)C[C@H](OC(=O)[C@H](OC(=O)CCC(=O)NCCCC[C@@H](NC(=O)[C@@H](Cc4ccccc4)NC(=O)[C@@H](Cc4ccccc4)NC(=O)Cc4ccc5ccccc5c4)C(=O)N[C@H](Cc4ccc(OP(=O)(O)O)cc4)C(=O)O)[C@@H](NC(=O)c4ccccc4)c4ccccc4)C(C)=C1C3(C)C)[C@]1(OC(C)=O)CO[C@@H]1C[C@@H]2O [19b, 2-(Naphthalen-2-yl)acetyl-(D)-Phe-(D)-Phe-(D)-Lys(Taxol)-(D)-Tyr phosphate] ({Acetyl(2-naphthyl)}-[dF][dF][dK](Paclitaxel(2'-O-succinyl))[d(pY)]-OH)
IC50 (HeLa cells): 0.0619 µM | solubility [1]: relatively good solubility

CC(=O)O[C@H]1C(=O)[C@@]2(C)[C@H]([C@H](OC(=O)c3ccccc3)[C@]3(O)C[C@H](OC(=O)[C@H](OC(=O)CCC(=O)NCCCC[C@@H](NC(=O)[C@@H](Cc4ccccc4)NC(=O)[C@@H](Cc4ccccc4)NC(=O)Cc4ccc5ccccc5c4)C(=O)N[C@H](Cc4ccc(O)cc4)C(=O)O)[C@@H](NC(=O)c4ccccc4)c4ccccc4)C(C)=C1C3(C)C)[C@]1(OC(C)=O)CO[C@@H]1C[C@@H]2O [20b] ({Acetyl(2-naphthyl)}-[dF][dF][dK](Paclitaxel(2'-O-succinyl))[dY]-OH)
IC50 (HeLa cells): 0.106 µM | side effect from relative weights of mice [2]: limit the side effect of Taxol to the mice | solubility [1]: relatively good solubility

COc1ccc2cc([C@H](C)C(=O)N[C@@H](Cc3ccccc3)C(=O)N[C@@H](Cc3ccccc3)C(=O)O)ccc2c1 [L-1, Naproxen-L-Phe-L-Phe]
IC50 (COX-1): 986 µM | IC50 (COX-2): 715 µM

COc1ccc2cc([C@H](C)C(=O)N[C@@H](Cc3ccccc3)C(=O)N[C@@H](Cc3ccccc3)C(=O)N[C@@H](Cc3ccc(O)cc3)C(=O)O)ccc2c1 [L-2, Naproxen-L-Phe-L-Phe-L-Tyr]
IC50 (COX-1): 294 µM | IC50 (COX-2): 144 µM

COc1ccc2cc([C@H](C)C(=O)N[C@H](Cc3ccccc3)C(=O)N[C@H](Cc3ccccc3)C(=O)O)ccc2c1 [compound 1, Naproxen-D-Phe-D-Phe]
IC50 (COX-1 (ovine) enzyme): 854 µM | hydrogelator released from hydrogel [3]: 6.5% | critical strain [4]: 1.0% | storage modulus G′ [4]: 5.3×10^4 Pa

COc1ccc2cc([C@H](C)C(=O)N[C@H](Cc3ccccc3)C(=O)N[C@H](Cc3ccccc3)C(=O)N[C@H](CCCCN)C(=O)N[C@H](Cc3ccc(O)cc3)C(=O)O)ccc2c1 [compound 4, Npx-ffky] (Naproxen-[dF][dF][dK][dY]-OH)
hydrogelator released from hydrogel [3]: 19.8% | critical strain [4]: 5.5% | storage modulus G′ [4]: 1.5×10^2 Pa

COc1ccc2cc([C@H](C)C(=O)NCCCC[C@@H](NC(=O)[C@@H](Cc3ccccc3)NC(=O)[C@H](N)Cc3ccccc3)C(=O)O)ccc2c1 [compound 5, D-Phe-D-Phe-D-Lys(naproxen)]
IC50 (COX-1 (ovine) enzyme): 476 µM

COc1ccc2cc([C@H](C)C(=O)NCCCC[C@@H](NC(=O)[C@@H](Cc3ccccc3)NC(=O)[C@H](N)Cc3ccccc3)C(=O)N[C@H](Cc3ccc(O)cc3)C(=O)O)ccc2c1 [compound 6, D-Phe-D-Phe-D-Lys(naproxen)-D-Tyr] (H-[dF][dF][dK](Naproxen)[dY]-OH)
IC50 (COX-1 (ovine) enzyme): 367 µM
